The values that follow come from patent US8163929B2, “Dihydropyridone amides as P2X7 modulators” (Roche Palo Alto LLC, priority 2008, dated 2012).

The assay has as its target T1, P2X7 (UniProt Q99572).
T1 sequence (Q99572 1-595): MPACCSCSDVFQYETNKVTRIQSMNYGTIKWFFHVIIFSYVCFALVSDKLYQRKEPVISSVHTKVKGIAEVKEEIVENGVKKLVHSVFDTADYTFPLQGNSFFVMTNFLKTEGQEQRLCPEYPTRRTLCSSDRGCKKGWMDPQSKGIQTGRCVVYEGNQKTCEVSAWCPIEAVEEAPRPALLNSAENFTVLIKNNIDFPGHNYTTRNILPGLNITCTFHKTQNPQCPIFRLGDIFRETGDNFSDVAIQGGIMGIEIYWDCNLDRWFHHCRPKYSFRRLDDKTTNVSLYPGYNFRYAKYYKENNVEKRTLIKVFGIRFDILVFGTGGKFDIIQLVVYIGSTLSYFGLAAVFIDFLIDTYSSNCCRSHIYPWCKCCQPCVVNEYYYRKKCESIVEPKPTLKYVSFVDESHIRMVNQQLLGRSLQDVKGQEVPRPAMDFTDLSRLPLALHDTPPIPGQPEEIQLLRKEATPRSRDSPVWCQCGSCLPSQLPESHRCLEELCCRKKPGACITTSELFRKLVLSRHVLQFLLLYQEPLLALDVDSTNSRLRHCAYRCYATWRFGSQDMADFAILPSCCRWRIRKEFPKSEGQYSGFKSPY
As to the kind of experiment: P2X7 activity of Table 1. It is filed as cell-based. Conditions: pIC50 values for P2X7. In short, it runs like this:
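FLIPR calcium flux with fluo-3 in 1321N1 cells expressing human P2X7 and HEK293 cells expressing rat P2X7, in HBSS with 2 mM CaCl2 and 2.5 mM probenecid. Antagonist pre-incubated 20 min at room temperature, then BzATP added (100 μM human, 5 μM rat). Peak response over 5 min normalised to 5 μM ionomycin.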
For the compound `Cc1ccc(-c2ccnn(C)c2=O)cc1NC(=O)C1=CNC(=O)C[C@H]1c1cccc(F)c1` [Compound 109, (S)-4-(3-Fluoro-phenyl)-6-oxo-1,4,5,6-tetrahydro-pyridine-3-carboxylic acid [2-methyl-5-(2-methyl-3-oxo-2,3-dihydro-pyridazin-4-yl)-phenyl]-amide], the pIC50 is reported as 8.045.

In turn, `Cc1ccc(-n2ncccc2=O)cc1NC(=O)C1=CN(C)C(=O)C[C@H]1c1ccc(F)cc1` [Compound 110, (S)-4-(4-Fluoro-phenyl)-1-methyl-6-oxo-1,4,5,6-tetrahydro-pyridine-3-carboxylic acid [2-methyl-5-(6-oxo-6H-pyridazin-1-yl)-phenyl]-amide] gave a pIC50 of 7.17.

In the case of `Cc1ccc(-c2cc(C(F)(F)F)n(CCO)n2)cc1NC(=O)C1=CN(C)C(=O)C[C@H]1c1cccc(F)c1` [Compound 111, (S)-4-(3-Fluoro-phenyl)-1-methyl-6-oxo-1,4,5,6-tetrahydro-pyridine-3-carboxylic acid {5-[1-(2-hydroxy-ethyl)-5-trifluoromethyl-1H-pyrazol-3-yl]-2-methyl-phenyl}-amide], the pIC50 was 6.895.

Take `Cc1ccc(-c2ccn(CCO)n2)cc1NC(=O)C1=CN(C)C(=O)C[C@H]1c1cccc(F)c1` [Compound 112, (S)-4-(3-Fluoro-phenyl)-1-methyl-6-oxo-1,4,5,6-tetrahydro-pyridine-3-carboxylic acid {5-[1-(2-hydroxy-ethyl)-1H-pyrazol-3-yl]-2-methyl-phenyl}-amide]: the pIC50 came out at 7.645.

Turning to `Cc1cc(-c2ccc(Cl)c(NC(=O)C3=CN(C)C(=O)C[C@H]3c3ccc(F)cc3)c2)nn1CCO` [Compound 115, (S)-4-(4-Fluoro-phenyl)-1-methyl-6-oxo-1,4,5,6-tetrahydro-pyridine-3-carboxylic acid {2-chloro-5-[1-(2-hydroxy-ethyl)-5-methyl-1H-pyrazol-3-yl]-phenyl}-amide], the pIC50 came to 7.04.

As for `Cc1ccc(-c2ccc[nH]c2=O)cc1NC(=O)C1=CN(C)C(=O)C[C@H]1c1ccc(F)cc1` [Compound 116, (S)-4-(4-Fluoro-phenyl)-1-methyl-6-oxo-1,4,5,6-tetrahydro-pyridine-3-carboxylic acid [2-methyl-5-(2-oxo-1,2-dihydro-pyridin-3-yl)-phenyl]-amide], the pIC50 is recorded as 7.565.

As for `COc1ccc(-c2ccc(C)c(NC(=O)C3=CN(C)C(=O)C[C@H]3c3ccc(F)cc3)c2)nn1` [Compound 117, (S)-4-(4-Fluoro-phenyl)-1-methyl-6-oxo-1,4,5,6-tetrahydro-pyridine-3-carboxylic acid [5-(6-methoxy-pyridazin-3-yl)-2-methyl-phenyl]-amide], the negative-log IC50 (pIC50) turned out to be 7.22.

In turn, `Cc1ccc(-c2ccc(=O)[nH]n2)cc1NC(=O)C1=CN(C)C(=O)C[C@H]1c1ccc(F)cc1` [Compound 118, (S)-4-(4-Fluoro-phenyl)-1-methyl-6-oxo-1,4,5,6-tetrahydro-pyridine-3-carboxylic acid [2-methyl-5-(6-oxo-1,6-dihydro-pyridazin-3-yl)-phenyl]-amide] returned a pIC50 of 6.585.

Turning to `Cc1ccc(-c2cc(C)n(CC(=O)NCCN(C)C)n2)cc1NC(=O)C1=CNC(=O)C[C@H]1c1ccc(F)cc1` [Compound 119, (S)-4-(4-Fluoro-phenyl)-6-oxo-1,4,5,6-tetrahydro-pyridine-3-carboxylic acid (5-{1-[(2-dimethylamino-ethylcarbamoyl)-methyl]-5-methyl-1H-pyrazol-3-yl}-2-methyl-phenyl)-amide], the pIC50 came out at 7.685.

`Cc1ccc(-c2cccn(C)c2=O)cc1NC(=O)C1=CN(C)C(=O)C[C@H]1c1ccc(F)cc1` [Compound 120, (S)-4-(4-Fluoro-phenyl)-1-methyl-6-oxo-1,4,5,6-tetrahydro-pyridine-3-carboxylic acid [2-methyl-5-(1-methyl-2-oxo-1,2-dihydro-pyridin-3-yl)-phenyl]-amide] had a pIC50 of 7.855.
